# Test results taken from ChEMBL document CHEMBL4673219, “Novel 5,6-disubstituted pyrrolo[2,3-d]pyrimidine derivatives as broad spectrum antiproliferative agents: Synthesis, cell based assays, kinase profile and molecular docking study” (Bioorg Med Chem, 2018).
# Columns and labels:
# [1] = test system: SF-539; assay: Growth inhibition of human SF-539 cells assessed as growth percentage at 100 uM incubated for 48 hrs by sulforhodamine B assay relative to control; assay type: functional; conditions: read-out: Activity
# [2] = test system: SK-MEL-28; assay: Growth inhibition of human SK-MEL-28 cells assessed as growth percentage at 1 uM incubated for 48 hrs by sulforhodamine B assay relative to control; assay type: functional; conditions: read-out: Activity
# [3] = test system: ACHN; assay: Growth inhibition of human ACHN cells incubated for 48 hrs by sulforhodamine B assay; assay type: functional
# [4] = test system: SK-MEL-2; assay: Growth inhibition of human SK-MEL-2 cells assessed as growth percentage at 0.01 uM incubated for 48 hrs by sulforhodamine B assay relative to control; assay type: functional; conditions: read-out: Activity
# [5] = test system: SK-MEL-28; assay: Growth inhibition of human SK-MEL-28 cells assessed as growth percentage at 0.01 uM incubated for 48 hrs by sulforhodamine B assay relative to control; assay type: functional; conditions: read-out: Activity
# [6] = test system: OVCAR-5; assay: Growth inhibition of human OVCAR-5 cells assessed as growth percentage at 100 uM incubated for 48 hrs by sulforhodamine B assay relative to control; assay type: functional; conditions: read-out: Activity
# [7] = test system: SK-MEL-28; assay: Growth inhibition of human SK-MEL-28 cells assessed as growth percentage at 0.1 uM incubated for 48 hrs by sulforhodamine B assay relative to control; assay type: functional; conditions: read-out: Activity
# [8] = test system: OVCAR-5; assay: Growth inhibition of human OVCAR-5 cells assessed as growth percentage at 0.1 uM incubated for 48 hrs by sulforhodamine B assay relative to control; assay type: functional; conditions: read-out: Activity
# [9] = test system: SK-MEL-2; assay: Growth inhibition of human SK-MEL-2 cells assessed as growth percentage at 0.1 uM incubated for 48 hrs by sulforhodamine B assay relative to control; assay type: functional; conditions: read-out: Activity
# [10] = test system: SF-539; assay: Growth inhibition of human SF-539 cells assessed as growth percentage at 0.1 uM incubated for 48 hrs by sulforhodamine B assay relative to control; assay type: functional; conditions: read-out: Activity
# [11] = test system: OVCAR-5; assay: Growth inhibition of human OVCAR-5 cells assessed as growth percentage at 0.01 uM incubated for 48 hrs by sulforhodamine B assay relative to control; assay type: functional; conditions: read-out: Activity
# [12] = test system: SK-MEL-28; assay: Growth inhibition of human SK-MEL-28 cells assessed as growth percentage at 100 uM incubated for 48 hrs by sulforhodamine B assay relative to control; assay type: functional; conditions: read-out: Activity
# [13] = AUClast in Sprague-Dawley rat at 10 mg/kg, iv measured up to 24 hrs by LC-MS/MS analysis; assay type: ADME, organism-based; parameters: route intravenous, dose 10 mg/kg, time <=24; conditions: in vivo
# [14] = test system: HL-60(TB); assay: Growth inhibition of human HL-60(TB) cells incubated for 48 hrs by sulforhodamine B assay; assay type: functional
# [15] = test system: HL-60(TB); assay: Growth inhibition of human HL-60(TB) cells assessed as growth percentage at 0.01 uM incubated for 48 hrs by sulforhodamine B assay relative to control; assay type: functional; conditions: read-out: Activity
# [16] = target: Macrophage colony-stimulating factor 1 receptor (Homo sapiens) (UniProt P07333); assay: Inhibition of human FMS at 10 uM using myelin basic protein as substrate incubated for 40 mins in presence of [gamma33P]ATP by scintillation counting method relative to control
# [17] = test system: HL-60(TB); assay: Growth inhibition of human HL-60(TB) cells assessed as growth percentage at 0.1 uM incubated for 48 hrs by sulforhodamine B assay relative to control; assay type: functional; conditions: read-out: Activity
# [18] = target: Tyrosine-protein kinase Yes (Homo sapiens) (UniProt P07947); assay: Inhibition of human YES1 at 10 uM using myelin basic protein as substrate incubated for 40 mins in presence of [gamma33P]ATP by scintillation counting method relative to control
# [19] = test system: HL-60(TB); assay: Growth inhibition of human HL-60(TB) cells assessed as growth percentage at 100 uM incubated for 48 hrs by sulforhodamine B assay relative to control; assay type: functional; conditions: read-out: Activity
# [20] = test system: HL-60(TB); assay: Growth inhibition of human HL-60(TB) cells assessed as growth percentage at 1 uM incubated for 48 hrs by sulforhodamine B assay relative to control; assay type: functional; conditions: read-out: Activity
# [21] = target: Tyrosine-protein kinase Lyn (Homo sapiens) (UniProt P07948); assay: Inhibition of human LYN at 10 uM using myelin basic protein as substrate incubated for 40 mins in presence of [gamma33P]ATP by scintillation counting method relative to control
# [22] = target: Insulin-like growth factor 1 receptor (Homo sapiens) (UniProt P08069); assay: Inhibition of human IGF1R at 10 uM using myelin basic protein as substrate incubated for 40 mins in presence of [gamma33P]ATP by scintillation counting method relative to control
# [23] = AUC (0 to infinity) in Sprague-Dawley rat at 10 mg/kg, iv measured up to 24 hrs by LC-MS/MS analysis; assay type: ADME, organism-based; parameters: route intravenous, dose 10 mg/kg, time <=24; conditions: in vivo
# [24] = Cmax in Sprague-Dawley rat at 10 mg/kg, po measured up to 24 hrs by LC-MS/MS analysis; assay type: ADME, organism-based; parameters: route oral, dose 10 mg/kg, time <=24; conditions: in vivo
# [25] = AUC (0 to infinity) in Sprague-Dawley rat at 10 mg/kg, po measured up to 24 hrs by LC-MS/MS analysis; assay type: ADME, organism-based; parameters: route oral, dose 10 mg/kg, time <=24; conditions: in vivo
# [26] = AUClast in Sprague-Dawley rat at 10 mg/kg, po measured up to 24 hrs by LC-MS/MS analysis; assay type: ADME, organism-based; parameters: route oral, dose 10 mg/kg, time <=24; conditions: in vivo
# [27] = Oral bioavailability in Sprague-Dawley rat at 10 mg/kg measured up to 24 hrs by LC-MS/MS analysis; assay type: ADME, organism-based; conditions: in vivo
# [28] = test system: A498; assay: Growth inhibition of human A498 cells incubated for 48 hrs by sulforhodamine B assay; assay type: functional
# [29] = Clearance in Sprague-Dawley rat at 10 mg/kg, iv measured up to 24 hrs by LC-MS/MS analysis; assay type: ADME, organism-based; conditions: in vivo
# [30] = Terminal half life in Sprague-Dawley rat at 10 mg/kg, po measured up to 24 hrs by LC-MS/MS analysis; assay type: ADME, organism-based; conditions: in vivo, read-out: beta t1/2
# [31] = Terminal half life in Sprague-Dawley rat at 10 mg/kg, iv measured up to 24 hrs by LC-MS/MS analysis; assay type: ADME, organism-based; conditions: in vivo, read-out: beta t1/2
# Chain of Tyrosine-protein kinase Lyn (Homo sapiens) (P07948 2-512 limits assumed): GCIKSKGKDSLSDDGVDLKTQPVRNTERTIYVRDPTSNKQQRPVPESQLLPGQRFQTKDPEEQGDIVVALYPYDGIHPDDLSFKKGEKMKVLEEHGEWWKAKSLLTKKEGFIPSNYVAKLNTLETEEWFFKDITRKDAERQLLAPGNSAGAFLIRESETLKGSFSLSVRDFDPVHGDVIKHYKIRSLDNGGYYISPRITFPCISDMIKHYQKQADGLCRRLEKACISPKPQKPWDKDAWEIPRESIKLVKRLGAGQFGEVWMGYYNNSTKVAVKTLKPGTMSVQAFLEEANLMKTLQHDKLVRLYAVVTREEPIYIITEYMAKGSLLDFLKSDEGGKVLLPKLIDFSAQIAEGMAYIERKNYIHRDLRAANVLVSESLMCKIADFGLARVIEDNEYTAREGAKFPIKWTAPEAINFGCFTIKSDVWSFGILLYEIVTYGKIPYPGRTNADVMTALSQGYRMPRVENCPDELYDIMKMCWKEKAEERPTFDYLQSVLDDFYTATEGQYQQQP
# Chain of Macrophage colony-stimulating factor 1 receptor (Homo sapiens) (P07333 whole entry): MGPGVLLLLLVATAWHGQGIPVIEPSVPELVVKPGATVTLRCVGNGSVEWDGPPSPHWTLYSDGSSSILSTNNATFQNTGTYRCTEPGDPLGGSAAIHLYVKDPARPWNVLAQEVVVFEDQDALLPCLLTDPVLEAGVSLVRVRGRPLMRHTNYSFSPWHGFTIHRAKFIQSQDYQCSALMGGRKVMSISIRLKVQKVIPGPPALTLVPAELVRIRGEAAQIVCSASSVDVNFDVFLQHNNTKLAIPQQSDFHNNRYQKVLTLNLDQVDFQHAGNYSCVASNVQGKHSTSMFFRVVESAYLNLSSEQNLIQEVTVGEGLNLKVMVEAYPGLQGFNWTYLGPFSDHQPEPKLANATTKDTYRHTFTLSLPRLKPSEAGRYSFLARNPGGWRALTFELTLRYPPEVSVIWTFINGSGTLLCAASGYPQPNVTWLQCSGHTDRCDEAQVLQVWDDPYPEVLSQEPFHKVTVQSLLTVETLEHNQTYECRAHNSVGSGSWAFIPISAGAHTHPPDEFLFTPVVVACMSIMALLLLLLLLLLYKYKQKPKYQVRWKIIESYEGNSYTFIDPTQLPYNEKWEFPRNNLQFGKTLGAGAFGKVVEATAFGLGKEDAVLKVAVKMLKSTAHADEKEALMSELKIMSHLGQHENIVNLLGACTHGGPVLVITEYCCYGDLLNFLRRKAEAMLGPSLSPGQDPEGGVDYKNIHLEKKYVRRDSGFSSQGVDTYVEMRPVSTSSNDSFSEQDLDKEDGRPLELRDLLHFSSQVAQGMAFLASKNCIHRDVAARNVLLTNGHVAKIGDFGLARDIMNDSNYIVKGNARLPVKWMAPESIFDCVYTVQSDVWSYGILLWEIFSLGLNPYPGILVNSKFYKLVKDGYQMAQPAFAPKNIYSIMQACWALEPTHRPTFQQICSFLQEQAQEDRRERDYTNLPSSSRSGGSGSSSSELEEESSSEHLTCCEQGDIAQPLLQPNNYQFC
# Chain of Insulin-like growth factor 1 receptor (Homo sapiens) (P08069 31-736 limits assumed): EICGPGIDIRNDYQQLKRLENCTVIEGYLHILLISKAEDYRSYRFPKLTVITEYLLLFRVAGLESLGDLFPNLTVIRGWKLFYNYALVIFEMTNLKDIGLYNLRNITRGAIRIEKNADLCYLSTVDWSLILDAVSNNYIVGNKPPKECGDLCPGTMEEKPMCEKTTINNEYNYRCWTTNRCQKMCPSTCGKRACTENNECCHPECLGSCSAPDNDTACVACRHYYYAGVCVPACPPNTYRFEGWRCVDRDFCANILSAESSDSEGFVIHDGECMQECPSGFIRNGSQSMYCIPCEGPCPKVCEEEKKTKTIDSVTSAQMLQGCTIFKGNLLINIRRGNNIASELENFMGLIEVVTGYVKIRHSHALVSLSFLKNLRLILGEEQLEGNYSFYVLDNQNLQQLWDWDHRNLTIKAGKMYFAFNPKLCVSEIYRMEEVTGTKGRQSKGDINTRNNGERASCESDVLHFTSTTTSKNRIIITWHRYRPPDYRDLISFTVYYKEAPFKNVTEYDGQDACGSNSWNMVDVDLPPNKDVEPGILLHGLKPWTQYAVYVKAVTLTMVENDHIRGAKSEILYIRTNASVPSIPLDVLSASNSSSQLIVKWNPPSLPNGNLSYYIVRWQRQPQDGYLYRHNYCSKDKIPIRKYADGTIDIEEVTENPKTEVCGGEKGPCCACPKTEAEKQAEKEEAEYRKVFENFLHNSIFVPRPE
# Chain of Insulin-like growth factor 1 receptor (Homo sapiens) (P08069 741-1367 limits assumed): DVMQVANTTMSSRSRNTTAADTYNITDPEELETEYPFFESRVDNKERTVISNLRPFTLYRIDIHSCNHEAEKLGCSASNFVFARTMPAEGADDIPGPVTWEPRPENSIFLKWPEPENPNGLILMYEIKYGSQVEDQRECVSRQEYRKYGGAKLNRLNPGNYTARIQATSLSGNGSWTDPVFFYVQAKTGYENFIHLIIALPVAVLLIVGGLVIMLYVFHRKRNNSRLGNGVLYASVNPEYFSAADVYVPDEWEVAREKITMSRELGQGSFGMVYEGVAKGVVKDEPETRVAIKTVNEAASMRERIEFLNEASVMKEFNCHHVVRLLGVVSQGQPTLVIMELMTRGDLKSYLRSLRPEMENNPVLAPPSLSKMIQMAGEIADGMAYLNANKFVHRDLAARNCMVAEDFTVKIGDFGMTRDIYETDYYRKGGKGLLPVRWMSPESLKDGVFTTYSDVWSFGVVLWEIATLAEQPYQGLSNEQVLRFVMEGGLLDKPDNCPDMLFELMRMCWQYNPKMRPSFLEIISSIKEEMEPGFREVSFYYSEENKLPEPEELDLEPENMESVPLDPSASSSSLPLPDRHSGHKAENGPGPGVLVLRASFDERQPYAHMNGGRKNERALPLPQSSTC
# Chain of Tyrosine-protein kinase Yes (Homo sapiens) (P07947 2-543 limits assumed): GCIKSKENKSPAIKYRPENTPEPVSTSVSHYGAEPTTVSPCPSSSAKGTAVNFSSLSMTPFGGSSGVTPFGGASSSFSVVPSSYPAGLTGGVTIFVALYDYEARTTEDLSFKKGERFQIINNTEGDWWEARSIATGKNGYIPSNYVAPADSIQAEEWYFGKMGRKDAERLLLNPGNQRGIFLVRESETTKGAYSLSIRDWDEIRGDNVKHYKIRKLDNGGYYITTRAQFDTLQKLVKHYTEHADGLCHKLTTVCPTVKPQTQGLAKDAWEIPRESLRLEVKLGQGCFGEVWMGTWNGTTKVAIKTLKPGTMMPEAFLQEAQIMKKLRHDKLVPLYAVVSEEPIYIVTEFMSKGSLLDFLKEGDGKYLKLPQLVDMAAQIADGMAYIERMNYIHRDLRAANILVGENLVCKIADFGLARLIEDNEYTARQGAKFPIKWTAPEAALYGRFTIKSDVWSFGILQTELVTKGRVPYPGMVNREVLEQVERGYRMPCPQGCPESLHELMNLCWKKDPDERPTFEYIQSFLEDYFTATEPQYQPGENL
smiles,measurement,setting,value
Nc1nc2[nH]c(CN3CCN(c4cc(Cl)cc(Cl)c4)CC3)c(CN3CCN(c4cc(Cl)cc(Cl)c4)CC3)c2c(=O)[nH]1,growth at 100 µM,[1],-55%
same,growth at 1 µM,[2],91%
same,GI50,[3],1940 nM
same,TGI,[3],3900 nM
same,growth at 0.01 µM,[4],109%
same,growth at 0.01 µM,[5],94%
same,growth at 100 µM,[6],-35%
same,growth at 0.1 µM,[7],98%
same,growth at 0.1 µM,[8],94%
same,growth at 0.1 µM,[9],115%
same,growth at 0.1 µM,[10],94%
same,growth at 0.01 µM,[11],87%
same,growth at 100 µM,[12],-42%
CCCCCCCC(=O)Nc1nc2[nH]c(CN3CCN(Cc4cccc(F)c4)CC3)c(CN3CCN(Cc4cccc(F)c4)CC3)c2c(=O)[nH]1,AUC(0-t) at 24 h,[13],317 ng·h/mL
same,GI50,[14],1740 nM
same,TGI,[14],3750 nM
same,growth at 0.01 µM,[15],98%
same,inhibition,[16],70.3%
same,growth at 0.1 µM,[17],99%
same,inhibition,[18],45.5%
same,growth at 100 µM,[19],-45%
same,growth at 1 µM,[20],96%
same,inhibition,[21],70.3%
same,inhibition,[22],70.3%
same,AUC(0-inf),[23],498 ng·h/mL
same,Cmax,[24],10 ng/mL
same,AUC(0-inf),[25],61.7 ng·h/mL
same,AUC(0-t) at 24 h,[26],56.7 ng·h/mL
same,bioavailability,[27],12.3%
same,GI50,[28]; A498,1250 nM
same,TGI,[28]; A498,2530 nM
same,CC50,"[28]; A498, 48 h, read-out: LC50 (the source's name)",5100 nM
same,clearance,[29],342 mL/min/kg
same,half-life,[30],1.66 h
same,half-life,[31],11.7 h
